Experimental data published in ChEMBL document CHEMBL1201862, “PubChem BioAssay data set” (2004).
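1) Cells in 96-well plates. 2) Compound, 48 h, 5 concentrations. 3) Linear interpolation between surrounding doses. 4) Unreached endpoint = highest concentration. GI50 is the concentration that inhibits growth by half.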 Activity calls are given as the source filed them. No stated cut-off is given here; in the data, active = GI50 up to about 1.1 µM and inactive = higher.

What was measured:
Assay in all cases: DTP human tumour cell line panel, 48 h
KM12 = tested on: KM12
ACHN = tested on: ACHN
U-251 = tested on: U-251
UO-31 = tested on: UO-31
SK-OV-3 = tested on: SK-OV-3
HL-60 = tested on: HL-60
TK-10 = tested on: TK-10
M14 = tested on: M14
SK-MEL-28 = tested on: SK-MEL-28
SN12C = tested on: SN12C
HCC 2998 = tested on: HCC 2998
MOLT-4 = tested on: MOLT-4
SNB-19 = tested on: SNB-19
OVCAR-8 = tested on: OVCAR-8
HCT-116 = tested on: HCT-116
CCRF-CEM = tested on: CCRF-CEM
HOP-62 = tested on: HOP-62

Measured: GI50

Cc1ncc(CCl)c2c1OC(C)(C)OC2
inactive: KM12 37.5 µM | ACHN 21.3 µM | U-251 14.4 µM | UO-31 > 100 µM | SK-OV-3 > 100 µM | HL-60 27 µM | TK-10 > 100 µM | M14 36.4 µM | SK-MEL-28 24 µM | SN12C 35.6 µM | HCC 2998 > 100 µM | MOLT-4 42.5 µM | SNB-19 63.8 µM | OVCAR-8 67.1 µM | HCT-116 25.1 µM | CCRF-CEM 47.8 µM | HOP-62 > 100 µM

COc1ccc(C(=O)c2c(C(C(=O)c3ccc(OC)cc3)C(=O)c3ccc(OC)cc3)n(C(=O)c3ccc(OC)cc3)c3ccccc23)cc1
inactive: KM12 > 100 µM | ACHN > 100 µM | U-251 > 100 µM | UO-31 > 100 µM | SK-OV-3 > 100 µM | HL-60 > 100 µM | TK-10 > 100 µM | M14 > 100 µM | SK-MEL-28 > 100 µM | SN12C > 100 µM | HCC 2998 > 100 µM | MOLT-4 > 100 µM | SNB-19 > 100 µM | OVCAR-8 > 100 µM | HCT-116 > 100 µM | CCRF-CEM > 100 µM | HOP-62 > 100 µM

O=C1OC(CC(=O)c2ccc(Cl)c(Cl)c2)C(Cl)=C1Cl (centres undefined)
inactive: KM12 > 100 µM | ACHN > 100 µM | U-251 > 100 µM | UO-31 > 100 µM | SK-OV-3 > 100 µM | HL-60 82 µM | TK-10 > 100 µM | M14 > 100 µM | SK-MEL-28 > 100 µM | SN12C > 100 µM | HCC 2998 > 100 µM | MOLT-4 38.7 µM | SNB-19 79.3 µM | OVCAR-8 > 100 µM | CCRF-CEM 20.8 µM | HOP-62 > 100 µM

Nn1c(-c2ccccc2Cl)nc2ccccc2c1=O
inactive: KM12 > 100 µM | ACHN > 100 µM | U-251 > 100 µM | UO-31 > 100 µM | SK-OV-3 > 100 µM | HL-60 > 100 µM | TK-10 > 100 µM | M14 > 100 µM | SK-MEL-28 > 100 µM | SN12C > 100 µM | HCC 2998 > 100 µM | MOLT-4 > 100 µM | SNB-19 > 100 µM | OVCAR-8 > 100 µM | HCT-116 > 100 µM | CCRF-CEM > 100 µM | HOP-62 > 100 µM

CCOc1ccc(OCC(=O)O)c2c1CCCC2=O
inactive: KM12 > 100 µM | ACHN > 100 µM | U-251 > 100 µM | UO-31 > 100 µM | SK-OV-3 > 100 µM | HL-60 > 100 µM | TK-10 > 100 µM | M14 > 100 µM | SK-MEL-28 > 100 µM | SN12C > 100 µM | HCC 2998 > 100 µM | MOLT-4 > 100 µM | SNB-19 > 100 µM | OVCAR-8 > 100 µM | CCRF-CEM > 10 µM | HOP-62 > 100 µM

COc1ccc2cc3n(c(=O)c2c1)CCc1c-3cc(OC)c(OC)c1OC
inactive: ACHN > 100 µM | U-251 50.6 µM | UO-31 > 100 µM | SK-OV-3 > 100 µM | HL-60 > 100 µM | TK-10 > 100 µM | M14 > 100 µM | SK-MEL-28 > 100 µM | SN12C > 100 µM | HCC 2998 > 100 µM | MOLT-4 > 100 µM | SNB-19 > 100 µM | OVCAR-8 > 100 µM | HCT-116 > 100 µM | CCRF-CEM > 100 µM | HOP-62 68.1 µM
